# Results as given in patent publication US8334315B2, “Substituted aromatic carboxamide and urea derivatives as vanilloid receptor ligands” (Gruenenthal GmbH, priority 2009, dated 2012).
# Target: T1, hVR1 (Homo sapiens, UniProt Q8NER1)
# T1 construct: expressed in transfected cells; host or cells: CHO K1 cells (ECACC), stably transfected
# Assay: Functional test on VR1, FLIPR Ca2+ influx in transfected CHO K1 cells, capsaicin
# Assay type: cell-based, human being
# Parameters: key to Ki (human being) [nM] Cap: agonist / partial agonist / no effect: AG=agonist; pAG=partial agonist; NE=no effect
# Settings: not given
# Description: In the process, the Ca^2+ influx is quantified in the FLIPR assay with the aid of a Ca^2+-sensitive dye (type Fluo-4, Molecular Probes Europe BV, Leiden, the Netherlands) in a fluorescent imaging plate reader (FLIPR, Molecular Devices, Sunnyvale, USA), as described hereinafter.
# II. Functional Tests Carried Out on the Vanilloid Receptor (VR1)
# The agonistic or antagonistic effect of the substances to be tested on the vanilloid receptor 1 (VR1) can also be determined using the following assay. In this assay, the influx of Ca^2+ through the channel is quantified with the aid of a Ca^2+-sensitive dye (type Fluo-4, Molecular Probes Europe BV, Leiden, the Netherlands) in a fluorescent imaging plate reader (FLIPR, Molecular Devices, Sunnyvale, USA).
# Chinese hamster ovary cells (CHO K1 cells, European Collection of Cell Cultures (ECACC) United Kingdom) are stably transfected with the VR1 gene. For functional testing, these cells are plated out on poly-D-lysine-coated black 96-well plates having a clear base (BD Biosciences, Heidelberg, Germany) at a density of 25,000 cells/well. The cells are incubated overnight at 37° C. and 5% CO2 in a culture medium (Ham's F12 nutrient mixture, 10% by volume of FCS (foetal calf serum), 18 μg/ml of L-proline). The next day the cells are incubated with Fluo-4 (Fluo-4 2 μM, 0.01% by volume of Pluronic F127, Molecular Probes in HBSS (Hank's buffered saline solution), Gibco Invitrogen GmbH, Karlsruhe, Germany) for 30 minutes at 37° C. Subsequently, the plates are washed three times with HBSS buffer and after further incubation for 15 minutes at RT used for Ca^2+ measurement in a FLIPR assay. The Ca^2+-dependent fluorescence is measured before and after the addition of the substances to be tested (λex wavelength=488 nm, λem=540 nm). Quantification is carried out by measuring the highest fluorescence intensity (FC, fluorescence counts) over time.
# The FLIPR protocol consists of 2 substance additions. First the compounds to be tested (10 μM) are pipetted onto the cells and the Ca^2+ influx is compared with the control (capsaicin 10 μM) (% activation based on the Ca^2+ signal after the addition of 10 μM of capsaicin). After 5 minutes' incubation, 100 nM of capsaicin are applied and the Ca^2+ influx is also determined.
# Desensitising agonists and antagonists led to suppression of the Ca^2+ influx. The % inhibition is calculated compared to the maximum achievable inhibition with 10 μM of capsaicin.
# Starting from the percentage displacement caused by different concentrations of the compounds to be tested of general formula I, IC50 inhibitory concentrations which cause a 50-per cent displacement of capsaicin were calculated. Ki values for the test substances were obtained by conversion by means of the Cheng-Prusoff equation (Cheng, Prusoff; Biochem. Pharmacol. 22, 3099-3108, 1973).
# The affinity of the compounds according to the invention for the vanilloid receptor 1 (VR1/TRPV1 receptor) was determined as described hereinbefore (pharmacological methods I and II respectively).
# T1 sequence (Q8NER1 whole entry): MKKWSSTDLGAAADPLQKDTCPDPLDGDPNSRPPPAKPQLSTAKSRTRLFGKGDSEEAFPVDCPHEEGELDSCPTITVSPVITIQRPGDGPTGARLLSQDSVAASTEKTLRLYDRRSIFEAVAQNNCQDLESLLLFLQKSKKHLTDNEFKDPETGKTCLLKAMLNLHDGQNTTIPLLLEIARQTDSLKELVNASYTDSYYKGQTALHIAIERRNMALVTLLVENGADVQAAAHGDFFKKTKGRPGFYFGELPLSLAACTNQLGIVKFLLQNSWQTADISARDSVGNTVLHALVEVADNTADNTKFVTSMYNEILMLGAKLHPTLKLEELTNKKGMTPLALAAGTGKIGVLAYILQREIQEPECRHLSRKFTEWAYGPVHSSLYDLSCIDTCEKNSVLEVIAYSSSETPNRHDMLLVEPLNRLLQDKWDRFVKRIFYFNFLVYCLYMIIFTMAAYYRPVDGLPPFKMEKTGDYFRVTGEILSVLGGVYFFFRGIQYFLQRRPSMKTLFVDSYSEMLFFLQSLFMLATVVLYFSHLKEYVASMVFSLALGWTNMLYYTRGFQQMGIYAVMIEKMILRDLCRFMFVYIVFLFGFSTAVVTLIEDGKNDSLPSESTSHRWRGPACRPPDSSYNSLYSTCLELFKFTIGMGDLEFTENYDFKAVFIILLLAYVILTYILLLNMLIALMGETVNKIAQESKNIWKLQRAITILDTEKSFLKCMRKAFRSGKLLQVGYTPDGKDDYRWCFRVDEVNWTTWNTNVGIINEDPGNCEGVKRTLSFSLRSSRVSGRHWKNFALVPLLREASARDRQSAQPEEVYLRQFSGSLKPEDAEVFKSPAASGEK
row,Ki (human being) [nM] Cap: agonist / partial agonist / no effect,Structure (SMILES)
1,pAG,"CC(C(=O)NCc1cc(C(F)(F)F)nn1-c1cccc(Cl)c1)c1cccc2c1CCC2=O (stereo not shown) [Example 206, N-((1-(3-chlorophenyl)-3-(trifluoromethyl)-1H-pyrazol-5-yl)methyl)-2-(1-oxo-2,3-dihydro-1H-inden-4-yl)propanamide]"
2,pAG,"CC(C(=O)NCc1cc(C(F)(F)F)nn1-c1cccc(Cl)c1)c1ccc2nc(N)sc2c1 (stereo not shown) [Example 43, 2-(2-aminobenzo[d]thiazol-6-yl)-N-((1-(3-chlorophenyl)-3-(trifluoromethyl)-1H-pyrazol-5-yl)methyl)propanamide]"
3,pAG,"CC(C)(C)c1cc(CNC(=O)Nc2cccc3c2CCC3)n(-c2cccc(Cl)c2)n1 [Example 78, 1-((3-tert-butyl-1-(3-chlorophenyl)-1H-pyrazol-5-yl)methyl)-3-(2,3-dihydro-1H-inden-4-yl)urea]"

# Same assay, conditions: capsaicin (Cap); includes values given in brackets after pAG; read-out: Ki (human being) [nM] Cap
row,Ki [nM],Structure (SMILES)
1,1.6,"CC(C(=O)NCc1cc(C(C)(C)C)nn1-c1cccc(Cl)c1)c1cc(F)cc2[nH]ncc12 (stereo not shown) [Example 193, N-((3-tert-butyl-1-(3-chlorophenyl)-1H-pyrazol-5-yl)methyl)-2-(6-fluoro-1H-indazol-4-yl)propanamide]"
2,33.5,"CCCCCn1nc(C(F)(F)F)cc1CNC(=O)C(C)c1cccc2[nH]ncc12 (stereo not shown) [Example 199, 2-(1H-indazol-4-yl)-N-((1-pentyl-3-(trifluoromethyl)-1H-pyrazol-5-yl)methyl)propanamide]"
3,28.4,"CC(C(=O)NCc1cc(C2CC2)nn1-c1cccc(Cl)c1)c1ccc2c(c1)OCO2 (stereo not shown) [Example 183, 2-(benzo[d][1,3]dioxol-5-yl)-N-((1-(3-chlorophenyl)-3-cyclopropyl-1H-pyrazol-5-yl)methyl)propanamide]"
4,0.5,"CC(C)(C)c1cc(CNC(=O)Nc2cccc3ccncc23)n(-c2cccc(Cl)c2)n1 [Example 108, 1-((3-tert-butyl-1-(3-chlorophenyl)-1H-pyrazol-5-yl)methyl)-3-(isoquinolin-8-yl)urea]"
5,12.8,"CC(C(=O)NCc1cc(C(F)(F)F)nn1-c1cccc(Cl)c1)c1ccc2c(c1)C(=O)CC2 (stereo not shown) [Example 6, N-((1-(3-chlorophenyl)-3-(trifluoromethyl)-1H-pyrazol-5-yl)methyl)-2-(3-oxo-2,3-dihydro-1H-inden-5-yl)propanamide]"
6,5.9,"CC(C)(C)c1cc(CNC(=O)Cc2ccc3c(c2)OCCO3)n(-c2cccc(Cl)c2)n1 [Example 188, N-((3-tert-butyl-1-(3-chlorophenyl)-1H-pyrazol-5-yl)methyl)-2-(2,3-dihydrobenzo[b][1,4]dioxin-6-yl)acetamide]"
7,8.4,"O=C(NCc1cc(C(F)(F)F)nn1-c1cccc(Cl)c1)Nc1cc(F)cc2[nH]ncc12 [Example 194, 1-((1-(3-chlorophenyl)-3-(trifluoromethyl)-1H-pyrazol-5-yl)methyl)-3-(6-fluoro-1H-indazol-4-yl)urea]"
8,41,"O=C(NCc1cc(C(F)(F)F)nn1-c1ccc(OC(F)(F)F)cc1)Nc1ccc2c(c1)CCC2 [Example 180, 1-(2,3-dihydro-1H-inden-5-yl)-3-((1-(4-(trifluoromethoxy)phenyl)-3-(trifluoromethyl)-1H-pyrazol-5-yl)methyl)urea]"
9,32.8,"CC(C)(C)c1cc(CNC(=O)Nc2ccc3c(c2)CCC3)n(-c2cc(Cl)cc(Cl)c2)n1 [Example 182, 1-((3-tert-butyl-1-(3,5-dichlorophenyl)-1H-pyrazol-5-yl)methyl)-3-(2,3-dihydro-1H-inden-5-yl)urea]"
10,35.9,"Cc1ccc(-n2nc(C(F)(F)F)cc2CNC(=O)Nc2ccc3c(c2)CCC3)cc1C [Example 181, 1-(2,3-dihydro-1H-inden-5-yl)-3-((1-(3,4-dimethylphenyl)-3-(trifluoromethyl)-1H-pyrazol-5-yl)methyl)urea]"
11,6.6,"CC(C(=O)NCc1cc(C(F)(F)F)nn1-c1cccc(Cl)c1)c1cccc2c1CCCC2 (stereo not shown) [Example 2, N-((1-(3-chlorophenyl)-3-(trifluoromethyl)-1H-pyrazol-5-yl)methyl)-2-(5,6,7,8-tetrahydronaphthalen-1-yl)propanamide]"
12,66.2,"CC(C(=O)NCc1cc(C(F)(F)F)nn1C1CCCCC1)c1ccc2c(c1)OCCO2 (stereo not shown) [Example 184, N-((1-cyclohexyl-3-(trifluoromethyl)-1H-pyrazol-5-yl)methyl)-2-(2,3-dihydrobenzo[b][1,4]dioxin-6-yl)propanamide]"
13,5.2,"Cc1cc2c(C(C)C(=O)NCc3cc(C(F)(F)F)nn3-c3cccc(Cl)c3)cccc2c(C)n1 (stereo not shown) [Example 67, N-((1-(3-chlorophenyl)-3-(trifluoromethyl)-1H-pyrazol-5-yl)methyl)-2-(1,3-dimethylisoquinolin-5-yl)propanamide]"
14,38.4,"COc1ccc(-n2nc(C(F)(F)F)cc2CNC(=O)Nc2ccc3c(c2)CCC3)cc1 [Example 178, 1-(2,3-dihydro-1H-inden-5-yl)-3-((1-(4-methoxyphenyl)-3-(trifluoromethyl)-1H-pyrazol-5-yl)methyl)urea]"
15,34,"CC(C)(C)c1cc(CNC(=O)Nc2ccc3c(c2)CCC3)n(-c2cccc(F)c2)n1 [Example 176, 1-((3-tert-butyl-1-(3-fluorophenyl)-1H-pyrazol-5-yl)methyl)-3-(2,3-dihydro-1H-inden-5-yl)urea]"
16,10.3,"CC(C)(C)c1cc(CNC(=O)Nc2ccc3c(c2)CCC3)n(-c2ccc(F)c(Cl)c2)n1 [Example 177, 1-((3-tert-butyl-1-(3-chloro-4-fluorophenyl)-1H-pyrazol-5-yl)methyl)-3-(2,3-dihydro-1H-inden-5-yl)urea]"
17,30.4,"CC(C(=O)NCc1cc(C(F)(F)F)nn1-c1cccc(Cl)c1)c1ccc2c(c1)C=CC(C)(C)O2 (stereo not shown) [Example 190, N-((1-(3-chlorophenyl)-3-(trifluoromethyl)-1H-pyrazol-5-yl)methyl)-2-(2,2-dimethyl-2H-chromen-6-yl)propanamide]"
18,0.4,"CC(C(=O)NCc1cc(C(F)(F)F)nn1-c1cccc(Cl)c1)c1cccc2c1CCC2=O (stereo not shown) [Example 206, N-((1-(3-chlorophenyl)-3-(trifluoromethyl)-1H-pyrazol-5-yl)methyl)-2-(1-oxo-2,3-dihydro-1H-inden-4-yl)propanamide]"
19,5.5,"CC(C(=O)NCc1cc(C(C)(C)C)nn1-c1cccc(Cl)c1)c1cccc2[nH]ccc12 (stereo not shown) [Example 25, N-((3-tert-butyl-1-(3-chlorophenyl)-1H-pyrazol-5-yl)methyl)-2-(1H-indol-4-yl)propanamide]"
20,22.9,"CC(C(=O)NCc1cc(C(F)(F)F)nn1-c1cccc(Cl)c1)c1ccc2nc(N)sc2c1 (stereo not shown) [Example 43, 2-(2-aminobenzo[d]thiazol-6-yl)-N-((1-(3-chlorophenyl)-3-(trifluoromethyl)-1H-pyrazol-5-yl)methyl)propanamide]"
21,5.8,"CC(C(=O)NCc1cc(C(F)(F)F)nn1-c1cccc(Cl)c1)c1cccc2c(F)cccc12 (stereo not shown) [Example 197, N-((1-(3-chlorophenyl)-3-(trifluoromethyl)-1H-pyrazol-5-yl)methyl)-2-(5-fluoronaphthalen-1-yl)propanamide]"
22,2.4,"CC(C)(C)c1cc(CNC(=O)Nc2cccc3c2CCC3)n(-c2cccc(Cl)c2)n1 [Example 78, 1-((3-tert-butyl-1-(3-chlorophenyl)-1H-pyrazol-5-yl)methyl)-3-(2,3-dihydro-1H-inden-4-yl)urea]"
23,75.8,"O=C(NCc1cc(C(F)(F)F)nn1-c1ccc(Cl)cc1)Nc1ccc2c(c1)CCC2 [Example 174, 1-((1-(4-chlorophenyl)-3-(trifluoromethyl)-1H-pyrazol-5-yl)methyl)-3-(2,3-dihydro-1H-inden-5-yl)urea]"
24,41.2,"CC(C(=O)NCc1cc(C(F)(F)F)nn1-c1cccc(Cl)c1)c1ccc2c(c1)CCC(C)(C)O2 (stereo not shown) [Example 189, N-((1-(3-chlorophenyl)-3-(trifluoromethyl)-1H-pyrazol-5-yl)methyl)-2-(2,2-dimethylchroman-6-yl)propanamide]"
25,70.2,"O=C(NCc1cc(C(F)(F)F)nn1-c1ccc(F)cc1)Nc1ccc2c(c1)CCC2 [Example 175, 1-(2,3-dihydro-1H-inden-5-yl)-3-((1-(4-fluorophenyl)-3-(trifluoromethyl)-1H-pyrazol-5-yl)methyl)urea]"
